Reference: patent publication US20260284075A1, “UNIT DOSAGE COMPOSITION COMPRISING MIDAZOLAM” (B. Braun Melsungen AG, priority 2023, published 2026)

Assay: Pharmacokinetic evaluation of oral thin films in dogs (midazolam in plasma, LC-MS/MS)
Format: in vivo, Marshall Beagle dogs
Settings: from cyclodextrin-containing films
Procedure: To investigate the local tolerability and pharmacokinetics of the four oral thin films prepared according to Example 1, the oral thin films containing 3.0 mg of midazolam HCl (corresponding to 2.7 mg of midazolam free base) were subsequently applied to 6 non-naïve Marshall Beagle dogs (3 male weighing 8.6-11 kg and 3 female weighing 7.5-8.1 kg) with at least 3 days washout phase between the treatments. DORMICUM® 7.5 mg tablets and a Midazolam 5 mg/mL solution for injection/infusion (obtained from B. Braun) were used as reference. The dogs were fastened before dose administration and during the period of the experiment. On the days of treatment, the animals were offered their first daily meal after collection of the blood sample 2 hours after dose, and the second meal of the day was given after collection of the blood sample 6 hours after dose.
Blood samples were taken from the dogs before the treatment, and 2, 5, 10, 30, 60, 120, and 360 minutes after the dose administration. Blood samples of approximately 2 mL were collected from the saphenous vein. […]
The concentration of midazolam in the blood samples was determined using validated liquid chromatography-mass spectrometry (LC-MS/MS) methods. […] The concentration of analytes in unknown samples was calculated using the analyte/internal standard area ratios. […] It was well mixed and the samples analyzed by using LC-MS/MS.

## Cc1ncc2n1-c1ccc(Cl)cc1C(c1ccccc1F)=NC2 [midazolam, 8-chloro-6-(2-fluoropheny)-1-methyl-4H-imidazo[1,5-α][1,4]benzodiazepine]
  time within which midazolam is absorbed through the oral mucosa: ≤ 10 min
